Data taken from PMC9011347, “Small-Molecule Inhibitors Targeting Lipolysis in Human Adipocytes” (Journal of the American Chemical Society, 2022).

Test: Serum stability of ATGL inhibitors (UHPLC-MS)
Type: in vitro ADME, human
Conditions: 3 h at 37 °C
Procedure: Figure 2 Development and characterization of the human ATGL inhibitor NG-497. (a) Structure and IC50 values of human ATGL inhibitors. (b) Dose-dependent inhibition of human ATGL by respective inhibitors. (c) ATGL activity was determined at the indicated substrate concentrations in the absence and presence of NG-497 (0.5 μM). Ki was determined by nonlinear regression analysis using GraphPad Prism. Lineweaver–Burk analysis of ATGL inhibition is shown in the inset. (d) Toxicity of NG-497 in HepG2 cells was determined after 24 h incubation at indicated concentrations. Cisplatin and DMSO were used as positive and negative controls, respectively. Cytotoxicity was determined using the Roche LDH Kit and calculated as relative LDH release compared to fully lysed cells. (e) Stability of NG-497 was analyzed via ultrahigh-performance liquid chromatography–mass spectrometry (UHPLC-MS) after incubation in human serum for 0 or 3 h at 37 °C. Atglistatin and a chemically related unstable compound were used as controls. […] NG-497 concentrations/well were determined at the indicated time points using UHPLC-MS. […] Statistical significance was determined via t test (*p < 0.05; **p < 0.01; ***p < 0.001) or ANOVA followed by Bonferroni post hoc test (^###p < 0.001). […] The detected 297 lipid species of both groups were analyzed with supervised multivariate analysis OPLS-DA and are shown as a loading plot. […]

Structure (SMILES) | stability in human serum
CCOc1ccc(-c2cc(OC)cc(C(=O)OC(C)C)n2)cc1 [NG-497] | not metabolized
CN(C)C(=O)Nc1cccc(-c2ccc(N(C)C)cc2)c1 [Atglistatin, reference compound] | not metabolized
